Article PMC12736018, “Stereoselective Cytotoxicity of Enantiopure 3,3-Dichloro-γ-lactams: Correlating In Vitro Activity with In Vivo Tolerability” (Molecules, 2025)
Values after ≈ are worked out from the molar mass of the structure shown.

Columns and labels:
3T3 cells = test: MTT cell viability assay, 3T3; type: cell-based; conditions: Mus musculus, NIH3T3; 3T3, MTT, 24 h
Description: (§1) The murine Swiss albino fibroblast (3T3), the immortal human keratinocyte (HaCaT), the squamous cell carcinoma (A431), the human epithelial carcinoma (HeLa) and the human breast adenocarcinoma (MCF-7) cell lines were sourced from Celltec UB (Barcelona, Spain). All cells were maintained and grown in DMEM medium (4.5 g/L glucose) supplemented with 10% (v/v) FBS, 2 mM L-glutamine, 100 U/mL penicillin and 100 μg/mL streptomycin at 37 °C, 5% CO2. Cells were routinely cultured in 75 cm^2 culture flasks and were trypsinized using trypsin-EDTA when the cells reached approximately 80%. Cell concentration in the resulting suspension was assessed using the trypan blue assay, which enables direct discrimination between viable (unstained) and non-viable (blue) cells.
(§2) T3 and HaCaT cells (1 × 10^5 cells/mL), along with A431, HeLa, and MCF-7 cells (5 × 10^4 cells/mL), were cultured at defined seeding densities in the 60 central wells of a 96-well plate. Cells were first incubated for 24 h under standard incubator conditions (5% CO2, 37 °C). After this period, the culture medium was removed, and the cells were incubated for an additional 24 h with their corresponding compound solutions (1 mg/mL) previously diluted in a minimum amount of DMF (dimethylformamide) and then in DMEM medium supplemented with 5% FBS (100 µL) at the required concentration range (20 to 250 µg/mL). Cell viability following exposure to the lactam derivatives was evaluated using two complementary assays: NRU and MTT.
(§3) Only living cells can reduce the yellow tetrazolium salt 3-(4,5-dimethyl-2-thiazolyl)-2,5-diphenyltetrazolium bromide (MTT) to insoluble purple formazan crystals. After a 24 h incubation of the cells with their corresponding NPs, the medium was removed and 100 µL of MTT (Sigma-Aldrich, St. Louis, MO, USA) in PBS (5 mg/mL) diluted 1:10 in culture medium without phenol red and without FBS (Lonza, Verviers, Belgium) was added to the cells. After 3 h of incubation, the medium was removed. Thereafter, 100 µL of DMSO (Sigma-Aldrich, St. Louis, MO, USA) was added to each well to dissolve the purple formazan crystals. Agitation and absorbance measurements of the extracted solution were carried out under the same conditions described for the NRU assay. The effect of each treatment was then expressed as the percentage of tetrazolium salt reduction by viable cells relative to untreated controls.
(§4) The half-maximal inhibitory concentration (IC50) values for the different formulations, across cell lines and experimental endpoints, were obtained by fitting the concentration-dependent viability curves. […] These findings reflect the very low cytotoxicity of the compounds toward these cell lines.

zebrafish embryos = test: Fish Embryo Acute Toxicity (FET) assay: lethality and dysmorphogenesis; type: in vivo; conditions: for EC50: Danio rerio, read-out: EC50 (dysmorphogenesis); for teratogenicity classification: TI > 2; for Teratogenic Index (TI = LC50/EC50): zebrafish embryos
Description: (§5) (2 mM CaCl2·2H2O; 0.5 mM MgSO4·7H2O; 0.75 mM NaHCO3; 0.07 mM KCl). The fish were maintained at a temperature of 26 ± 1 °C on a 14 h light and 10 h dark cycle and were daily fed in the morning with Artemia salina, and with commercial flake food in the afternoon (SDS400, Special Diet Services, Dietex, France). The day before eggs were needed, males and females were placed in a breeding tank with plants at a 2:1 male-to-female ratio. The following morning, eggs were collected 30 min after the lights were turned on. […] Fertilized, non-coagulated, and synchronously divided eggs were selected using a stereomicroscope (Motic SMZ168, Motic China group, Ltd., Xiamen, China) and transferred to 6-well plates (10 embryos/well). Embryos were exposed to freshly prepared tested concentrations of the compound in 0.3× Danieau’s solution. Chemical stock solution was prepared in 100% dimethylsulfoxide (DMSO) and subsequently diluted in Danieau’s buffer with a final DMSO concentration of 1% (v/v). Test was carried out using five concentrations with a negative control, solvent control with 1% of DMSO. Embryos were incubated at 27 ± 1 °C with a light–dark cycle of 14:10 h until 72 h post-fertilization (hpf) under semi-static conditions, as exposure solutions were renewed by freshly prepared solutions every 24 h.
(§6) At 24, 48 and 72 hpf embryos were observed under a stereomicroscope to assess lethality. […] At the end of the test, dysmorphogenesis was evaluated in live embryos only. The average lethality and dysmorphogenesis were calculated for 10 embryos per concentration, followed by averaging the results of at least three independent experiments. […] The Teratogenic Index (TI) was deter-mined as the ratio between the LC50 and EC50 (TI = LC50/EC50).

[1] = as above; type: in vivo; conditions: zebrafish (Danio rerio), in vivo; zebrafish embryos exposed 2 to 72 hpf, 1.95-125 µg/mL; read-out: LC50 (lethal concentration 50)
Description: as §5, §6

A431 cells = test: MTT cell viability assay, A431; type: cell-based; conditions: Homo sapiens, A-431, 24 h
Description: as §1, §2, §3, §4

[2] = NRU cell viability assay, A431; type: cell-based, human; conditions: human, A431 cells (squamous cell carcinoma), highest tested concentration (250 µg/mL)
Description: as §1, §2
(§7) The neutral red uptake (NRU) assay is based on the accumulation of dye in the lysosomes of viable cells. After the cells were incubated for 24 h with the corresponding systems, the medium was removed, and the solutions were incubated with the NR dye (Sigma-Aldrich, St. Louis, MO, USA) solution (50 µg/mL) dissolved in the medium, without FBS and without phenol red (Lonza, Verviers, Belgium), for 3 h. Cells were then washed with sterile PBS, followed by the addition of 100 µL of a solution containing 50% absolute ethanol and 1% acetic acid in distilled water to extract the dye. To promote the total dissolution of the dye, plates were placed in a microtiter-plate shaker for 5 min at room temperature. The absorbance of the resulting solutions was measured at 550 nm (Bio-Rad 550 microplate reader, Bio-Rad California, Hercules, CA, USA). Finally, the effect of each treatment was calculated as the percentage of dye uptake by viable cells relative to the control cells (cells without any treatment). Finally, the effect of each treatment was calculated as the percentage of dye retained by viable cells compared with untreated control cells.
as §4

[3] = NRU cell viability assay, HeLa; type: cell-based, human; conditions: human, HeLa cells (epithelial carcinoma), highest tested concentration (250 µg/mL)
Description: as §1, §2, §7, §4

[4] = NRU cell viability assay, MCF-7; type: cell-based, human; conditions: human, MCF-7 cells (breast adenocarcinoma), MCF-7, NRU, highest tested concentration (250 µg/mL)
Description: as §1, §2, §7, §4

Structure (SMILES)	IC50 (3T3 cells) [µg/mL]	EC50 (zebrafish embryos) [µg/mL]	teratogenicity classification (zebrafish embryos)	Teratogenic Index (TI = LC50/EC50) (zebrafish embryos)	LC50 [1] [µg/mL]	IC50 (A431 cells) [µg/mL]	viability at 24 h, 250 µg/mL [2] [%]	viability at 24 h, 250 µg/mL [3] [%]	viability at 24 h, 250 µg/mL [4] [%]	embryos exhibiting morphological abnormalities (zebrafish embryos; at 15.6 µg/mL)
C[C@@H]1CN([C@@H](C)c2ccccc2)C(=O)C1(Cl)Cl [Compound 3, (R)-3,3-dichloro-4-methyl-1-((S)-1-phenylethyl)pyrrolidin-2-one]	30 (≈ 110 µM)	18.3 (≈ 67.1 µM)	potential teratogens	3.5	63.8 (≈ 234 µM)	56 (≈ 206 µM)	20 to 30	20 to 30	20 to 30	
C[C@H](c1ccccc1)N1C[C@H](C)C(Cl)(Cl)C1=O [Compound 4]	94.6 (≈ 348 µM)	11.2 (≈ 41.3 µM)	potential teratogens	2.95	33.2 (≈ 122 µM)	164 (≈ 604 µM)				more than 20%
